Assay results: BindingDB's records for doi:10.1016/j.bmc.2011.01.052 (Kinki University, 2011)

Assay: Inhibition of rat intestinal maltase

Row | SMILES | IC50
1 | OC[C@@H]1[C@@H](O)[C@H](O)C[S@+]1C[C@@H](O)[C@@H](O)[C@H](O)[C@@H](O)CO [(1R,2R,3S,4S)-3,4-dihydroxy-2-(hydroxymethyl)-1-((2S,3S,4R,5S)-2,3,4,5,6-pentahydroxyhexyl)tetrahydro-1H-thiophenium chloride] | 5.1 µM
2 | OC[C@@H]1[C@@H](O)[C@H](O)C[S@+]1C[C@@H](O)[C@@H](O)[C@H](O)[C@H](O)[C@@H](O)CO [(2R,3S,4S)-1-[(2S,3S,4R,5R,6S)-2,3,4,5,6,7-hexahydroxyheptyl]-3,4-dihydroxy-2-(hydroxymethyl)tetrahydrothiophenium (non-preferred name)] | 4.8 µM
3 | OC[C@H](O)C[S@@+]1C[C@@H](O)[C@H](O)[C@H]1CO [Neosalaprinol] | > 384 µM
4 | O=S(=O)([O-])O[C@@H]([C@H](O)[C@@H](O)CO)[C@H](O)C[S@@+]1C[C@@H](O)[C@H](O)[C@H]1CO [ponkoranol] | 3.2 µM

The remaining compounds from weak to strong by IC50, led by results:

Row | IC50 | SMILES
5 | 105 µM | OC[C@@H](O)C[S@@+]1C[C@@H](O)[C@H](O)[C@H]1CO [1,4-dideoxy-1,4-{(R)-[(2S)-2,3-dihydro-xypropyl]episulfoniumylidene}-D-arabinitol Chloride]
6 | 4.3 µM | OC[C@@H](O)[C@@H](O)[C@H](O)[C@H](O)C[S@@+]1C[C@@H](O)[C@H](O)[C@H]1CO [(1R,2R,3S,4S)-3,4-dihydroxy-2-(hydroxymethyl)-1-((2S,3S,4R,5R)-2,3,4,5,6-pentahydroxyhexyl)tetrahydro-1H-thiophenium chloride]
7 | 1.3 µM | OC[C@@H]1[C@@H](O)[C@H](O)C[S@+]1C[C@@H](O)[C@H](O)[C@H](O)[C@@H](O)CO [1,4-Dideoxy-1,4-{(R)-[(2S,3R,4R,5S)-2,3,4,5,6-pentahydroxyhexyl]episulfoniumylidene}-D-arabinitol chloride]
